According to patent US8466184B2, “Biocide” (Titan Chemicals Limited, priority 2011, dated 2013):

How the values were obtained:
[1] = Measuring stability of water solutions (temperature at which the solution remained fluid after 24 hours and seeding); type: physicochemical; conditions: after 24 hours and seeding with seed crystal
Method: According to the invention there is therefore provided a composition consisting essentially of water and the tetramethylammonium salt of 1,2-benzisothiazolin-3-one having a freezing point of less than about 0° C., such as less than about −1° C. for example less than about −3° C., about −5° C., about −10° C., about −15° C., about −20° C., about −25° C. or −30° C. As used herein the expression “freezing point” means that the composition is fluid after 24 hours and seeded with solid tetramethylammonium salt of 1,2-benzisothiazolin-3-one.
A series of solutions of tetramethylammonium BIT in distilled water were prepared. In series of experiments the temperature at which the solution remained fluid after 24 hours and seeding with a seed crystal of tetramethylammonium BIT was measured.

[2] = 59 wt % tetramethylammonium BIT (40 wt % BIT) in water; after storage for 24 hours and seeding; cited from earlier work

C[N+](C)(C)C.O=c1[n-]sc2ccccc12 [tetramethylammonium BIT, tetramethylammonium salt of 1,2-benzisothiazolin-3-one]
Temp at which the solution remained fluid ([1]; 20.3 % BIT concn in distilled water): −5 °C | Temp at which the solution remained fluid ([1]; 25.3 % BIT concn in distilled water): −8 °C | Temp at which the solution remained fluid ([1]; 30.4 % BIT concn in distilled water): −13 °C | Temp at which the solution remained fluid ([1]; 35.6 % BIT concn in distilled water): −20 °C | Temp at which the solution remained fluid ([1]; 39.3 % BIT concn in distilled water): −32 °C | Temp at which the solution remained fluid ([1]; 42.6 % BIT concn in distilled water): −10 °C | Temp at which the solution remained fluid ([1]; 45 % BIT concn in distilled water): 5 °C | freezing point of lowest freezing point water solution [2]: 3 °C
